# From patent US20210059959A1, “USE OF CANNABINOIDS IN THE TREATMENT OF MENTAL DISORDERS” (GW Pharma Limited, priority 2015, published 2021)
# Test system: participants with schizophrenia or related psychotic disorder
# Assay: Scale for the Assessment of Negative Symptoms (SANS), double-blind placebo-controlled study of CBD as adjunctive therapy
# Type: in vivo, human
# Settings: CBD vs placebo
# Protocol: Example 1 below describes the use of a highly purified cannabis extract comprising cannabidiol (CBD) in a human clinical trial. Example 1 describes data produced in a double-blind, randomised, placebo-controlled, parallel group study of highly purified CBD as adjunctive therapy in first line treatment of schizophrenia or related psychotic disorder.
# An eight-week, multi-centre, double-blind, randomised, placebo-controlled, parallel group study was conducted with the aim to determine the efficacy, safety and tolerability of highly purified CBD as adjunctive therapy in first line treatment of schizophrenia or related psychotic disorder.
# This study evaluated the efficacy of highly purified CBD compared with placebo on the participant's PANSS Total score, ‘P’, ‘N’, ‘G’, SANS and BACS scores.
# Changes from baseline in PANSS scores (Total, ‘P’, ‘N’ and ‘G’), SANS and BACS were recorded at the start of the study (baseline) and at the end of treatment (after 6 weeks treatment with CBD or placebo).
# For inclusion in the study participants were required to be male or female aged 18 to 65 years, diagnosed with schizophrenia or a related psychotic disorder (such as schizoaffective or schizophreniform disorder) as defined by the Diagnostic and Statistical Manual of Mental Disorders Version 4. Participants must have been treated for a minimum of four-weeks and be on a stable dose of their current antipsychotic medication. […] A PANSS score in excess of 60 infers that the patient has symptoms related to schizophrenia or related disorders.
# The participants were randomised to one of two treatment groups which each consisted of 39 participants. Treatment was administered as either 5 ml CBD (100 mg/ml) oral solution to be taken twice daily or 5 ml matched placebo oral solution to be taken twice daily.
# Scale for the Assessment of Negative Symptoms (SANS)
# SANS assesses five symptom complexes to obtain clinical ratings of negative symptoms in participants with schizophrenia or related psychotic disorder. They are: affective blunting; alogia (impoverished thinking); avolition/apathy; anhedonia/asociality; and disturbance of attention.
# Assessments are conducted on a six-point scale (0=not at all to 5=severe). This scale was measured at each assessment visit (Visit 1-4)
# [1] = patients on amisulpride, P = 0.8772
smiles,measurement,setting,value
"C=C(C)[C@@H]1CCC(C)=C[C@H]1c1c(O)cc(CCCCC)cc1O [CBD, Cannabidiol]","Change in baseline scores, SANS question 19: Sexual interest and activity: difference","all patients, P = 0.0364",(−0.4)
same,"Change in baseline scores, SANS sub-scale 4 (anhedonia/asociality): difference","all patients, P = 0.0605",(−1.2)
same,"Change in baseline scores, SANS question 24: Inattentiveness during mental status testing: difference","all patients, P = 0.0610",(−0.3)
same,"Change in baseline scores, SANS sub-scale 5 (disturbance of attention): difference","all patients, P = 0.0660",(−0.7)
same,"Change in baseline scores, SANS question 25: Global rating of attention: difference","all patients, P = 0.0773",(−0.2)
same,"Change in baseline scores, SANS question 20: Ability to feel closeness and intimacy: difference","all patients, P = 0.0918",(−1.1)
same,"Change in baseline scores, SANS total score: difference","all patients, P = 0.1168",(−3.5)
same,"Change in baseline scores, SANS question 18: Recreational interests and activity: difference","all patients, P = 0.1535",(−0.3)
same,"Change in baseline scores, SANS question 22: Global rating of anhedonia: difference","all patients, P = 0.1787",(−0.2)
same,"Change in baseline scores, SANS question 23: Social inattentiveness: difference","all patients, P = 0.2445",(−0.2)
same,"Change in baseline scores, SANS question 21: Relationships with friends and peers: difference","all patients, P = 0.8984",(0.0)
same,"Change in baseline scores, SANS score: difference","patients on amisulpride, P = 0.0687",(16.6)
same,"Change in baseline scores, SANS question 25: Global rating of attention: difference","patients on amisulpride, P = 0.0756",(1.0)
same,"Change in baseline scores, SANS question 19: Sexual interest and activity: difference","patients on amisulpride, P = 0.1971",(−0.8)
same,"Change in baseline scores, SANS question 18: Recreational interests and activity: difference","patients on amisulpride, P = 0.3833",(1.0)
same,"Change in baseline scores, SANS sub-scale 5 (disturbance of attention): difference","patients on amisulpride, P = 0.4023",(1.3)
same,"Change in baseline scores, SANS question 23: Social inattentiveness: difference","patients on amisulpride, P = 0.4206",(0.5)
same,"Change in baseline scores, SANS sub-scale 4 (anhedonia/asociality): difference","patients on amisulpride, P = 0.4357",(1.4)
same,"Change in baseline scores, SANS question 21: Relationships with friends and peers: difference","patients on amisulpride, P = 0.5671",(0.5)
same,"Change in baseline scores, SANS question 24: Inattentiveness during mental status testing: difference","patients on amisulpride, P = 0.8060",(−0.2)
same,"Change in baseline scores, SANS question 15: Impersistence at work or school: difference","patients on amisulpride, P = 0.8729",(0.0)
same,"Change in baseline scores, SANS question 20: Ability to feel closeness and intimacy: difference",[1],(0.1)
same,"Change in baseline scores, SANS question 22: Global rating of anhedonia: difference",[1],(0.1)
same,"Change in baseline scores, SANS question 25: Global rating of attention: difference","patients on aripiprazole, P = 0.0412",(−0.4)
same,"Change in baseline scores, SANS sub-scale 5 (disturbance of attention): difference","patients on aripiprazole, P = 0.1133",(−1.0)
same,"Change in baseline scores, SANS question 24: Inattentiveness during mental status testing: difference","patients on aripiprazole, P = 0.1740",(−0.4)
same,"Change in baseline scores, SANS question 15: Impersistence at work or school: difference","patients on aripiprazole, P = 0.1966",(−0.5)
same,"Change in baseline scores, SANS question 18: Recreational interests and activity: difference","patients on aripiprazole, P = 0.2979",(−0.3)
same,"Change in baseline scores, SANS question 23: Social inattentiveness: difference","patients on aripiprazole, P = 0.3546",(−0.2)
same,"Change in baseline scores, SANS question 19: Sexual interest and activity: difference","patients on aripiprazole, P = 0.4231",(−0.3)
same,"Change in baseline scores, SANS sub-scale 4 (anhedonia/asociality): difference","patients on aripiprazole, P = 0.7086",(−0.5)
same,"Change in baseline scores, SANS score: difference","patients on aripiprazole, P = 0.7642",(−1.4)
same,"Change in baseline scores, SANS question 21: Relationships with friends and peers: difference","patients on aripiprazole, P = 0.8346",(−0.1)
same,"Change in baseline scores, SANS question 20: Ability to feel closeness and intimacy: difference","patients on aripiprazole, P = 0.8965",(0.0)
same,"Change in baseline scores, SANS question 22: Global rating of anhedonia: difference","patients on aripiprazole, P = 0.9259",(0.0)
same,"Change in baseline scores, SANS score: difference","patients on olanzapine, P = 0.0050",(−14.3)
same,"Change in baseline scores, SANS question 20: Ability to feel closeness and intimacy: difference","patients on olanzapine, P = 0.0069",(−0.9)
same,"Change in baseline scores, SANS sub-scale 4 (anhedonia/asociality): difference","patients on olanzapine, P = 0.0071",(−3.7)
same,"Change in baseline scores, SANS question 15: Impersistence at work or school: difference","patients on olanzapine, P = 0.0242",(−0.9)
same,"Change in baseline scores, SANS question 22: Global rating of anhedonia: difference","patients on olanzapine, P = 0.0475",(−0.6)
same,"Change in baseline scores, SANS question 18: Recreational interests and activity: difference","patients on olanzapine, P = 0.0689",(−0.8)
same,"Change in baseline scores, SANS question 19: Sexual interest and activity: difference","patients on olanzapine, P = 0.0794",(−0.9)
same,"Change in baseline scores, SANS question 25: Global rating of attention: difference","patients on olanzapine, P = 0.1064",(−0.6)
same,"Change in baseline scores, SANS sub-scale 5 (disturbance of attention): difference","patients on olanzapine, P = 0.3556",(−1.0)
same,"Change in baseline scores, SANS question 21: Relationships with friends and peers: difference","patients on olanzapine, P = 0.4829",(−0.2)
same,"Change in baseline scores, SANS question 24: Inattentiveness during mental status testing: difference","patients on olanzapine, P = 0.5922",(−0.2)
same,"Change in baseline scores, SANS question 23: Social inattentiveness: difference","patients on olanzapine, P = 0.6757",(−0.2)
same,"Change in baseline scores, SANS question 24: Inattentiveness during mental status testing: difference","patients on other antipsychotics, P = 0.0654",(−1.6)
same,"Change in baseline scores, SANS question 25: Global rating of attention: difference","patients on other antipsychotics, P = 0.1763",(0.8)
same,"Change in baseline scores, SANS question 20: Ability to feel closeness and intimacy: difference","patients on other antipsychotics, P = 0.2601",(−0.4)
same,"Change in baseline scores, SANS question 15: Impersistence at work or school: difference","patients on other antipsychotics, P = 0.2746",(−10.6)
same,"Change in baseline scores, SANS score: difference","patients on other antipsychotics, P = 0.3359",(−8.3)
same,"Change in baseline scores, SANS sub-scale 5 (disturbance of attention): difference","patients on other antipsychotics, P = 0.4192",(−1.5)
same,"Change in baseline scores, SANS question 23: Social inattentiveness: difference","patients on other antipsychotics, P = 0.4246",(−0.5)
same,"Change in baseline scores, SANS sub-scale 4 (anhedonia/asociality): difference","patients on other antipsychotics, P = 0.5465",(−0.8)
same,"Change in baseline scores, SANS question 21: Relationships with friends and peers: difference","patients on other antipsychotics, P = 0.6373",(−0.2)
same,"Change in baseline scores, SANS question 22: Global rating of anhedonia: difference","patients on other antipsychotics, P = 0.6969",(−0.2)
same,"Change in baseline scores, SANS question 18: Recreational interests and activity: difference","patients on other antipsychotics, P = 0.8182",(−0.1)
same,"Change in baseline scores, SANS question 19: Sexual interest and activity: difference","patients on other antipsychotics, P = 0.9656",(0.0)
same,"Change in baseline scores, SANS sub-scale 4 (anhedonia/asociality): difference","patients on quetiapine, P = 0.0017",(−4.8)
same,"Change in baseline scores, SANS question 21: Relationships with friends and peers: difference","patients on quetiapine, P = 0.0044",(−0.7)
same,"Change in baseline scores, SANS question 18: Recreational interests and activity: difference","patients on quetiapine, P = 0.0233",(−1.3)
same,"Change in baseline scores, SANS question 19: Sexual interest and activity: difference","patients on quetiapine, P = 0.0501",(−1.4)
same,"Change in baseline scores, SANS question 23: Social inattentiveness: difference","patients on quetiapine, P = 0.0862",(−0.5)
same,"Change in baseline scores, SANS question 22: Global rating of anhedonia: difference","patients on quetiapine, P = 0.1043",(−1.1)
same,"Change in baseline scores, SANS question 20: Ability to feel closeness and intimacy: difference","patients on quetiapine, P = 0.1330",(−0.4)
same,"Change in baseline scores, SANS question 25: Global rating of attention: difference","patients on quetiapine, P = 0.2697",(−0.4)
same,"Change in baseline scores, SANS sub-scale 5 (disturbance of attention): difference","patients on quetiapine, P = 0.2701",(−1.1)
same,"Change in baseline scores, SANS score: difference","patients on quetiapine, P = 0.3150",(−5.4)
same,"Change in baseline scores, SANS question 24: Inattentiveness during mental status testing: difference","patients on quetiapine, P = 0.4421",(−0.6)
same,"Change in baseline scores, SANS question 15: Impersistence at work or school: difference","patients on quetiapine, P = 0.6640",(5.1)
same,"Change in baseline scores, SANS question 21: Relationships with friends and peers: difference","patients on risperidone, P = 0.0791",(0.5)
same,"Change in baseline scores, SANS sub-scale 4 (anhedonia/asociality): difference","patients on risperidone, P = 0.2800",(1.2)
same,"Change in baseline scores, SANS score: difference","patients on risperidone, P = 0.2955",(3.1)
same,"Change in baseline scores, SANS sub-scale 5 (disturbance of attention): difference","patients on risperidone, P = 0.3302",(0.7)
same,"Change in baseline scores, SANS question 25: Global rating of attention: difference","patients on risperidone, P = 0.3389",(0.2)
same,"Change in baseline scores, SANS question 24: Inattentiveness during mental status testing: difference","patients on risperidone, P = 0.4231",(0.3)
same,"Change in baseline scores, SANS question 18: Recreational interests and activity: difference","patients on risperidone, P = 0.4560",(−0.3)
same,"Change in baseline scores, SANS question 23: Social inattentiveness: difference","patients on risperidone, P = 0.5207",(0.2)
same,"Change in baseline scores, SANS question 15: Impersistence at work or school: difference","patients on risperidone, P = 0.6285",(0.1)
same,"Change in baseline scores, SANS question 19: Sexual interest and activity: difference","patients on risperidone, P = 0.6889",(0.1)
same,"Change in baseline scores, SANS question 20: Ability to feel closeness and intimacy: difference","patients on risperidone, P = 0.8648",(0.0)
same,"Change in baseline scores, SANS question 22: Global rating of anhedonia: difference","patients on risperidone, P = 0.9940",(0.0)
